{"source": "patent US20240352401A1", "about": "“FURFURAL-RESISTANT STRAIN AND METHOD FOR IMPROVING FURFURAL-RESISTANT OF STRAIN” (Korea Institute of Science and Technology, priority 2023, published 2024)", "key": {"[1]": {"tested_on": "wild-type Yarrowia lipolytica strain (PO1f, ATCC MYA-2613)", "assay": "Growth inhibition and glucose consumption of the parent strain according to furfural concentration (Reference Example 1)", "type": "cell-based", "source_text": "Confirmation of the degree of growth inhibition according to furfural in a parent strain Prior to the production of furfural-resistant strains, Yarrowia lipolytica PO1f strain having accession number ATCC MYA-2613, which are wild-type Yarrowia lipolytica, was selected as a parent strain, and the degree of growth inhibition and the degree of glucose consumption according to the concentration of furfural in the wild-type Yarrowia lipolytica strain, and the concentrations of furfural and furoic acid in the culture medium according to the cell culture time were confirmed.\nSpecifically, as the culture medium, a minimal medium (YSC medium (Yeast Synthetic Complete medium)) containing 6.7 g/L yeast nitrogen base (YNB), 20 g/L glucose as a carbon source and supplemented with complete supplement mixture (CSM) or CSM-Leu or CSM-Leu-Ura (MP Biomedicals, Solon, OH, USA) used. Furfural was added to the medium at concentrations of 0.1 g/L, 0.2 g/L, 0.3 g/L, 0.4 g/L or 0.5 g/L, respectively, and the growth rate was compared with that when furfural was not added. The culture was inoculated with the wild-type Yarrowia lipolytica strain with an initial OD600 value of 0.2 in 20 mL of the culture medium in a 100 mL Erlenmeyer flask, and then proceeded with shaking culture at 28° C. at 200 rpm. In this case, the wild-type strain is Yarrowia lipolytica PO1f strain with accession number ATCC MYA-2613. The “OD600” refers to the absorbance or optical density at a wavelength of 600 nm. It is possible to measure the density or concentration of microorganisms or cells in a sample by using the measured OD600."}, "[2]": {"tested_on": "Yarrowia lipolytica strain", "details": "very low concentration (~0.5 g/L) of furfural; cited from earlier work"}, "[3]": {"details": "furfural 0.1-0.5 g/L in YSC medium, 20 g/L glucose, 28° C., 200 rpm"}}}
{"smiles": "O=Cc1ccco1", "note": "[furfural]", "values": [{"measurement": "initial growth of the wild-type strain", "setting": "[1]; 0.2 g/L or more of furfural", "result": "growth was delayed"}, {"measurement": "growth of the wild-type strain", "setting": "[1]; 0.5 g/L of furfural", "result": "no growth was observed"}, {"measurement": "growth of the wild-type Yarrowia lipolytica strain as the furfural concentration increased", "setting": "[1]; [3]", "result": "clearly inhibited"}, {"measurement": "rate of glucose consumption as the furfural concentration increased", "setting": "[1]; [3]", "result": "reduced"}, {"measurement": "cell growth of Yarrowia lipolytica strain", "setting": "[2]", "result": "significantly inhibited"}]}
